Laboratory results published in the NIST ThermoML archive (doi:10.1021/acs.jced.8b00692).

Assay: xn = mol fraction of the nth substance listed
Conditions: 102 kPa, Liquid; for viscosity: Concentric cylinders viscometry; for speed of sound: Frequency=3 MHz, Single path-length method; for mass density: Vibrating tube method

CCCCCCC1CCCCC1 [hexylcyclohexane] + CCCCCCCCCCCCCCCC
Conditions	mass density [kg/m3]	speed of sound [m/s]	viscosity [mPa·s]
293.15 K, x1 = 0.1003	775.83	1357.1	3.35
293.15 K, x1 = 0.2002	778.43	1356.8	3.21
293.15 K, x1 = 0.2996	781.19	1356.9	3.09
293.15 K, x1 = 0.4192	784.77	1357	2.93
293.15 K, x1 = 0.5004	787.39	1357.1	2.82
293.15 K, x1 = 0.603	790.94	1357.4	2.7
293.15 K, x1 = 0.8003	798.59	1358.6	2.44
293.15 K, x1 = 1	807.71	1361	2.2
303.15 K, x1 = 0.1003	768.88	1319.8	2.66
303.15 K, x1 = 0.2002	771.48	1319.5	2.57
303.15 K, x1 = 0.2996	774.23	1319.6	2.47
303.15 K, x1 = 0.4192	777.8	1319.6	2.36
303.15 K, x1 = 0.5004	780.41	1319.7	2.28
303.15 K, x1 = 0.603	783.93	1319.8	2.19
303.15 K, x1 = 0.8003	791.52	1320.7	2
303.15 K, x1 = 1	800.56	1322.1	1.81
313.15 K, x1 = 0.1003	761.95	1283.2	2.17
313.15 K, x1 = 0.2002	764.54	1282.8	2.1
313.15 K, x1 = 0.2996	767.28	1282.9	2.02
313.15 K, x1 = 0.4192	770.83	1282.8	1.94
313.15 K, x1 = 0.5004	773.42	1282.9	1.87
313.15 K, x1 = 0.603	776.92	1282.9	1.8
313.15 K, x1 = 0.8003	784.45	1283.5	1.65
313.15 K, x1 = 1	793.4	1284.2	1.51
323.15 K, x1 = 0.1003	755.02	1247.3	1.8
323.15 K, x1 = 0.2002	757.6	1246.9	1.75
323.15 K, x1 = 0.2996	760.32	1246.9	1.68
323.15 K, x1 = 0.4192	763.85	1246.7	1.62
323.15 K, x1 = 0.5004	766.42	1246.7	1.57
323.15 K, x1 = 0.603	769.89	1246.6	1.52
323.15 K, x1 = 0.8003	777.35	1246.9	1.4
323.15 K, x1 = 1	786.22	1247.1	1.29
333.15 K, x1 = 0.1003	748.09	1212.3	1.51
333.15 K, x1 = 0.2002	750.65	1211.9	1.47
333.15 K, x1 = 0.2996	753.35	1211.7	1.42
333.15 K, x1 = 0.4192	756.86	1211.5	1.37
333.15 K, x1 = 0.5004	759.41	1211.4	1.33
333.15 K, x1 = 0.603	762.86	1211.2	1.29
333.15 K, x1 = 0.8003	770.24	1211.1	1.2
333.15 K, x1 = 1	779.02	1211	1.09
343.15 K, x1 = 0.1003	741.2	–	1.29
343.15 K, x1 = 0.2002	743.7	–	1.27
343.15 K, x1 = 0.2996	746.5	–	1.22
343.15 K, x1 = 0.4192	749.9	–	1.18
343.15 K, x1 = 0.5004	752.4	–	1.15
343.15 K, x1 = 0.603	755.9	–	1.13
343.15 K, x1 = 0.8003	763.1	–	1.05
343.15 K, x1 = 1	771.8	–	0.964
353.15 K, x1 = 0.1003	734.2	–	1.12
353.15 K, x1 = 0.2002	736.7	–	1.09
353.15 K, x1 = 0.2996	739.5	–	1.06
353.15 K, x1 = 0.4192	742.9	–	1.02
353.15 K, x1 = 0.5004	745.4	–	1
353.15 K, x1 = 0.603	748.8	–	0.971
353.15 K, x1 = 0.8003	756	–	0.919
353.15 K, x1 = 1	764.6	–	0.847
363.15 K, x1 = 0.1003	727.3	–	0.981
363.15 K, x1 = 0.2002	729.7	–	0.977
363.15 K, x1 = 0.2996	732.5	–	0.931
363.15 K, x1 = 0.4192	735.9	–	0.901
363.15 K, x1 = 0.5004	738.3	–	0.88
363.15 K, x1 = 0.603	741.7	–	0.873
363.15 K, x1 = 0.8003	748.8	–	0.817
363.15 K, x1 = 1	757.3	–	0.758

CCCCCCCCCC1CCCCC1 [nonylcyclohexane] + CCCCCCCCCCCCCCCC
Conditions	mass density [kg/m3]	speed of sound [m/s]	viscosity [mPa·s]
293.15 K, x1 = 0.2005	781.15	1363.9	3.58
293.15 K, x1 = 0.4001	789.28	1371.3	3.72
293.15 K, x1 = 0.5002	793.52	1375.2	3.79
293.15 K, x1 = 0.5998	797.86	1379.1	3.89
293.15 K, x1 = 0.8002	806.91	1387.3	4.07
293.15 K, x1 = 1	816.41	1397.2	4.34
303.15 K, x1 = 0.2005	774.24	1326.7	2.84
303.15 K, x1 = 0.4001	782.39	1334.2	2.95
303.15 K, x1 = 0.5002	786.64	1338.1	3
303.15 K, x1 = 0.5998	790.99	1342	3.06
303.15 K, x1 = 0.8002	800.06	1350.2	3.2
303.15 K, x1 = 1	809.57	1359.6	3.39
313.15 K, x1 = 0.2005	767.33	1290.2	2.3
313.15 K, x1 = 0.4001	775.51	1297.7	2.38
313.15 K, x1 = 0.5002	779.77	1301.6	2.43
313.15 K, x1 = 0.5998	784.12	1305.6	2.47
313.15 K, x1 = 0.8002	793.21	1313.8	2.58
313.15 K, x1 = 1	802.74	1322.9	2.72
323.15 K, x1 = 0.2005	760.43	1254.4	1.9
323.15 K, x1 = 0.4001	768.63	1261.9	1.96
323.15 K, x1 = 0.5002	772.9	1265.8	2
323.15 K, x1 = 0.5998	777.25	1269.8	2.03
323.15 K, x1 = 0.8002	786.35	1278.1	2.12
323.15 K, x1 = 1	795.8	1287.1	2.22
333.15 K, x1 = 0.2005	753.54	1219.5	1.6
333.15 K, x1 = 0.4001	761.74	1226.9	1.65
333.15 K, x1 = 0.5002	766.02	1230.9	1.68
333.15 K, x1 = 0.5998	770.38	1234.9	1.7
333.15 K, x1 = 0.8002	779.49	1243.4	1.77
333.15 K, x1 = 1	789.05	1252.2	1.85
343.15 K, x1 = 0.2005	746.6	–	1.38
343.15 K, x1 = 0.4001	754.9	–	1.4
343.15 K, x1 = 0.5002	759.2	–	1.44
343.15 K, x1 = 0.5998	763.6	–	1.45
343.15 K, x1 = 0.8002	772.7	–	1.5
343.15 K, x1 = 1	782.2	–	1.57
353.15 K, x1 = 0.2005	739.7	–	1.18
353.15 K, x1 = 0.4001	748	–	1.21
353.15 K, x1 = 0.5002	752.3	–	1.23
353.15 K, x1 = 0.5998	756.8	–	1.25
353.15 K, x1 = 0.8002	765.8	–	1.3
353.15 K, x1 = 1	775.4	–	1.35
363.15 K, x1 = 0.2005	732.7	–	1.05
363.15 K, x1 = 0.4001	741.1	–	1.06
363.15 K, x1 = 0.5002	745.4	–	1.09
363.15 K, x1 = 0.5998	749.8	–	1.09
363.15 K, x1 = 0.8002	758.9	–	1.13
363.15 K, x1 = 1	768.5	–	1.2
373.15 K, x1 = 0.2005	725.7	–	0.908
373.15 K, x1 = 0.4001	734.2	–	0.931
373.15 K, x1 = 0.5002	738.5	–	0.944
373.15 K, x1 = 0.5998	742.9	–	0.96
373.15 K, x1 = 0.8002	752	–	1
373.15 K, x1 = 1	761.6	–	1.03
